Consider twelve molecules from patent US4497812A, “2-Amino-5-aminomethyl-2-oxazolines, compositions and use” (Societe Cortial, S.A., priority 1982, dated 1985).

Like-named read-outs stand apart in the source and are kept apart here. A value given as a limit tells only on which side of the number the result lay.

For data set [1], the system named is right auricle of a guinea pig beating spontaneously. Description: antihistaminic activity antiH2 in vitro, histamine-induced chronotropic effect. Conditions: for intrinsic chronotropic effect / inhibition at 100 µg/mL: 100 microg/ml. It is filed as cell-based. The method, then: Antihistaminic activity antiH2 was determined in vitro on the right auricle of a guinea pig beating spontaneously.

For data set [2], the system named is rats. Description: antiallergic activity, cutaneous passive anaphylaxis test. It is filed as in vivo. As to the method:
The antiallergic activity was determined in rats in the cutaneous passive anaphylaxis test. The animals sensitized by an intradermic injection of IgE immediately received, after administration of the product to be tested, an intravenous injection of ovalbumin and Evans blue. The products of Examples 3 and 4 caused, at 10 mg/kg, 53 and 60% respectively inhibition of the Evans blue spot.

Data set [3] concerns right auricle of a guinea pig stimulated electrically. Nature of the data set: positive inotropic activity in vitro. As to conditions: Cavia porcellus; 100 microg/ml; read-out: increase of the auricle contractile force. It is filed as cell-based. As to the method: The positive inotropic activity was determined in vitro on the right auricle of a guinea pig stimulated electrically.

A short description of the next data set: in vivo. As to conditions: mouse, mice, read-out: Percentage of mortality. The method, then:
The toxicity was determined in mice for various ways of administraion.

Data set [4] deals with rats. Nature of the data set: diuretic activity, sodium excretion. Conditions: 20 mg/kg per os. It is filed as in vivo. The method, then: The diuretic activity was determined in rats subjected to a hydric regimen and evaluated by the ratio of sodium excreted in the treated animals to the sodium excreted in control animals. The products of Examples 3 and 7 multiplied the sodium excretion by 4.2 and 4.9 respectively at a dose of 20 mg/kg per os.

For another data set, the system named is mice. Description: hypocholesterolemic activity, regimen rich in cholesterol and cholic acid. As to conditions: 400 mg/kg per os. It is filed as in vivo. The method, then: The hypocholesterolemic activity was determined in mice subjected to a regimen rich in cholesterol and cholic acid for 7 days. After administration per os of the production of Example 6 in a dose of 400 mg/kg, a 21% reduction of cholesterolemia was noted on the 6th and 7th days. This drop in cholesterolemia was accompanied by a 20% reduction of the […] fraction, the HDL/cholesterol ratio being equal to 1.01.

The nature of another data set: ulcerigenic effect. It is filed as in vivo. Conditions: 200 mg/kg per os.
In data set [5] the test system is guinea pig ileum. Description: contractions induced by serotinin in vitro. It is filed as cell-based. As to conditions: Cavia porcellus; 25 microg/ml.
For data set [6], the system named is rats. Nature of the data set: carrageenan edema test. It is filed as in vivo. As to conditions: 100 mg/kg per os, after 4 hours. The text has this: The antiinflammatory activity was brought out in the carrageenan edema test in rats.
The test system of data set [7] is guinea pig ileum. Description: antihistaminic activity antiH1 in vitro, contractions induced by histamine. It is filed as cell-based. Conditions: Cavia porcellus. As to the method:
The antihistaminic activity antiH1 was determined in vitro on guinea pig ileum.

In data set [8] the test system is rats. Description: stress ulcer test. It is filed as in vivo. As to conditions: 25 mg/kg per os. The text has this:
The antiulcerigenic activity was shown in the stress ulcer test.

Data set [9] concerns spontaneously hypertensive rat. Description: spontaneously hypertensive rat, systolic pressure. It is filed as in vivo. As to conditions: orally 100 mg/kg. The method, then: In the model of the spontaneously hypertensive rat, the product of Example 13, administered orally in a dose of 100 mg/kg, caused a drop in systolic pressure of 14 and 15% respectively after two and four hours. The product of Example 14, administered in a dose of 100 mg/kg under the same conditions, caused a reduction of 21% of the systolic pressure after six hours.

[10] abbreviates: Cavia porcellus, 5 microg/ml of histamine.
Setting [11] is: ip, intraperitoneally 200 mg/kg.
Setting [12] is: ip, intraperitoneally 100 mg/kg.

Take `CCN(CC)CC1CN=C(N)O1` (stereo not shown) [Example 1, 2-amino-N,N-5-diethylaminomethyl-2-oxazoline]: the intrinsic chronotropic effect entry in [1] is “without exhibiting intrinsic chronotropic effect”. Also, the inhibition at 100 µg/mL in [1] (setting [10]) is over 50%. For the same molecule, the “inhibition of the Evans blue spot” value in the data set with rats [2] (100 mg/kg per os) was 60%. In addition, the activation at 100 µg/mL in [3] turned out to be 100%. The mortality in “in vivo” (setting [11]) came out at 0%; in the data set “in vivo” (po, orally 300 mg/kg), 0%.

As to `CCCCN(C)CC1CN=C(N)O1` (stereo not shown) [Example 2, 2-amino-5-(N-butyl-N-methylaminomethyl)-2-oxazoline], in data set [1], the intrinsic chronotropic effect result is reported as “without exhibiting intrinsic chronotropic effect”. This molecule also returned an inhibition at 100 µg/mL in [1] (setting [10]) of over 50%. For the same molecule, the mortality is 0% in the data set “in vivo” (setting [12]); 100% in “in vivo” (setting [11]); 0% in “in vivo” (po, orally 300 mg/kg).

On to `NC1=NCC(CN2CCCC2)O1` (stereo not shown) [Example 3, 2-amino-5-pyrrolidinomethyl-2-oxazoline], for which, in the data set with rats [2] (10 mg/kg), the “inhibition of the Evans blue spot” value is 53%. In the data set with rats [4], the “sodium excretion multiplied by (ratio treated to control animals)” value is 4.2. The mortality in the data set “in vivo” (setting [12]) was 0%; in the data set “in vivo” (setting [11]), 100%; in the data set “in vivo” (po, orally 300 mg/kg), 0%.

On to `NC1=NCC(CN2CCCCC2)O1` (stereo not shown) [Example 4, 2-amino-5-piperidinomethyl-2-oxazoline], for which, in the data set with rats [2] (10 mg/kg), the “inhibition of the Evans blue spot” value was 60%. In addition, the mortality came out at 0% in the data set “in vivo” (setting [12]); 100% in “in vivo” (setting [11]); 0% in the data set “in vivo” (po, orally 200 mg/kg); 33% in the data set “in vivo” (po, orally 300 mg/kg).

For `CC1CCN(CC2CN=C(N)O2)CC1` (stereo not shown) [Example 5, 2-amino-5-(4-methylpiperidinomethyl)-2-oxazoline], the mortality in the data set “in vivo” (setting [12]) came out at 0%; in “in vivo” (setting [11]) it was 100%; in the data set “in vivo” (po, orally 300 mg/kg), 0%.

Consider `CCC1CCCCN1CC1CN=C(N)O1` (stereo not shown) [Example 6, 2-amino-5-(2-ethylpiperidinomethyl)-2-oxazoline], for which, in [1], the intrinsic chronotropic effect entry is reported as “without exhibiting intrinsic chronotropic effect”. For the same molecule, in data set [1] (setting [10]), the inhibition at 100 µg/mL is over 50%. Besides, in the data set on mice, the HDL/cholesterol ratio was found to be 1.01 and the “reduction of the HDL-VLDL fraction” value turned out to be 20%. The same molecule displayed a reduction of cholesterolemia in the data set on mice (6th and 7th days) of 21%. Moreover, the mortality in “in vivo” (setting [11]) is 0%. Moreover, in the data set “in vivo” (po, orally 300 mg/kg), the mortality came to 0%.

Take `NC1=NCC(CN2CCOCC2)O1` (stereo not shown) [Example 7, 2-amino-5-morpholinomethyl-2-oxazoline]: the “sodium excretion multiplied by (ratio treated to control animals)” value in the data set with rats [4] turned out to be 4.9. In “in vivo” (po, orally 300 mg/kg), the mortality is 100%.

In the case of `CN1CCN(CC2CN=C(N)O2)CC1` (stereo not shown) [Example 10, 2-amino-(4-methylpiperazinyl)-5-methyl-2-oxazoline], the mortality in the data set “in vivo” (setting [11]) stood at 0%; in “in vivo” (po, orally 300 mg/kg) it was 0%.

Regarding `NC1=NCC(CN2CCN(c3ccccc3)CC2)O1` (stereo not shown) [Example 11], the ulcerigenic effect result in “ulcerigenic effect” is “very slightly ulcerigenic”. The figures for the inhibition at 25 µg/mL in the data set on guinea pig ileum [5] and with guinea pig ileum [7] (25 microg/ml) were 80% and over 80%, respectively. For the same molecule, the “inhibition of carrageenan edema” value in the data set on rats [6] worked out at 35%. For the same molecule, the “inhibition of the stress ulcer” value with rats [8] is given as 88%.

For the molecule `NC1=NCC(CN2CCC(Cc3ccccc3)CC2)O1` (stereo not shown) [Example 12], the mortality in the data set “in vivo” (setting [12]) is 0%; in “in vivo” (setting [11]) it was 100%; in “in vivo” (po, orally 100 mg/kg (footnote 1)), 0%; in the data set “in vivo” (po, orally 300 mg/kg) it was 100%.

Regarding `NC1=NCC(CN2CCN(Cc3ccccc3)CC2)O1` (stereo not shown) [Example 13], the inhibition at 100 µg/mL in [1] (setting [10]) was over 50%; with guinea pig ileum [7] (100 microg/ml), over 80%. In addition, the “drop in systolic pressure” value worked out at 15% in data set [9] (after four hours) and 14% in data set [9] (after two hours). The mortality in “in vivo” (setting [12]) was found to be 0%; in the data set “in vivo” (setting [11]), 100%; in “in vivo” (po, orally 300 mg/kg), 0%.

On to `C=CCN1CCN(CC2CN=C(N)O2)CC1` (stereo not shown) [Example 14], for which, in data set [1] (Cavia porcellus, 50 microg/ml, 5 microg/ml of histamine), the inhibition at 50 µg/mL was over 50%. In data set [9] (after six hours), the “reduction of the systolic pressure” value is given as 21%. The mortality in the data set “in vivo” (setting [11]) was determined as 0%; in the data set “in vivo” (po, orally 300 mg/kg), 0%.
